Laboratory results: US20220356169A1, “TETRAZINES FOR HIGH CLICK RELEASE SPEED AND YIELD” (priority 2019, published 2022)
Marks after values point to notes of the source that are not given here.

Legend:
[1] = test system: ADC AVP0458-TCO-MMAE; experiment: Triggered drug (MMAE) release from ADC in 50% mouse plasma, HPLC-SIM-MS; details: for MMAE release from ADC AVP0458-TCO-MMAE, Release (%) / MMAE release level, in words: 50% mouse plasma, 37° C.; for MMAE release level, in words: after 24h incubation
Description: In a 1.5 mL vial, the following was combined: 650 μL mouse plasma, 600 μL PBS, 20 μL ADC (1.62 μg/μL in PBS) and 7.5 μL d8-MMAE solution (0.167 μg/μL, internal standard). Next, aliquots of 20 μL were prepared to which 5.2 μL of a tetrazine solution (0.25 mM in 1:1 DMSO/H2O) was added and the solution was incubated at 37° C. At various times, 100 μL of cold MeCN was added to the aliquot and the mixture was vortexed, stored at 4° C. for 30 min. and centrifuged. 20 μL of supernatant was taken and combined with 100 μL of 1% formic acid (aq) solution. This sample was analysed with HPLC-SIM-MS to quantify the ratio of free MMAE and d8-MMAE, which is a measure of the release yield.

[2] = Triggered release of Construct-A from TCO trigger, HPLC-MS/PDA
Description: At the specified time point, the sample was analyzed by HPLC-MS/PDA, and the release yield was determined from the observed amounts of IEDDA adducts, elimination product, and/or released Construct. In case the release was not complete, the sample was incubated at 37° C. for additional time and analyzed once again.

[3] = Second-order rate constant of the IEDDA reaction with TCO 3.2, stopped-flow UV-Vis, pseudo first-order conditions; type: physicochemical; details: 25% MeCN/PBS at 20° C.; mean ± SD (n = 5)
Description: (§1) The second-order rate constant of the IEDDA reaction between model TCO 3.2 and activators 2.7 or 2.8 in MeCN at 20° C. was determined (n=1) by UV-Vis spectrometry under second-order conditions. A cuvette was filled with a solution of activator (3 mL 0.083 mM in MeCN), and equilibrated at 20° C. Next, a solution of TCO 3.2 (10.0 μL, 25 mM in DMSO) was added. The absorption at 540 nm was measured every second in a time course experiment. From the decay of this absorption, the conversion x was calculated. The second-order rate constant k2 was determined from the slope of the curve of a plot of 1/c-1/c0 versus time. The second-order rate constant of the IEDDA reaction between model TCO 3.2 and activators 2.7, 2.8, 2.14, 2.16, or 2.17 in 25% MeCN/PBS at 20° C. was determined (n=5) by stopped-flow UV-Vis spectrometry under pseudo first-order conditions. Tetrazine solutions (0.25 mM in 25% MeCN/PBS) and TCO 3.2 (3.45 mM in 25% MeCN/PBS) were mixed in a volume ratio of 1:1, resulting in a concentration of 0.125 mM and 1.73 mM, respectively. The absorption at 520 nm was measured every 50 ms, and from the decay of this absorption, the pseudo first-order rate constant k1′ was determined by a nonlinear Simplex regression analysis of the data points using BioKine software. The second-order rate constant k2 was calculated: k2=k1′/c,TCO. As expected for a cycloaddition reaction, the reactivity in PBS is much higher than in MeCN, and importantly the tetrazines of the invention are at least 1 order of magnitude more reactive than the known and high-releasing 3,6-bismethyl-tetrazine (2.17), while giving similar release yields (see Example 7).

[4] = Cell proliferation assay (MTT); type: cell-based; details: human, 3 days incubation, mean ± SEM (n = 6), read-out: LS174T cell viability (%); for viability at 72 h, 0.01 μM: 0.01 μM activator; for viability at 72 h, 0.1 μM: 0.1 μM activator; for viability at 72 h, 1 μM: 1 μM activator
Description: The human colon carcinoma LS174T cell line was obtained from the American Type Culture Collection and cultured in RPMI-1640 medium supplemented with 2 mM glutamine and 10% heat inactivated fetal calf serum. Twenty-four hours prior to the experiment, the cells were plated in 96-well plates at a 5000 cells/well density. The cells were then incubated with serial dilutions (10 nM-1 μM; n=6) of activators 2.7, 2.8, 2.14, 2.16, 2.17, 2.18 and 2.19 in culture medium for 72h at 37° C. The % cell proliferation was assessed by an MTT assay, in comparison to cells incubated in culture medium without activator. No toxicity was observed when the LS174T cells were incubated with the tested activators (and possible metabolites formed in the presence of serum) for 3-days at a 0.01-1 μM activator concentration.

[5] = Second-order rate constant of the IEDDA reaction with TCO 3.2, UV-Vis under second-order conditions in MeCN; type: physicochemical; details: MeCN at 20° C.; n = 1
Description: as §1, with “As expected for a cycloaddition reaction, the reactivity in PBS is much higher than in MeCN, and importantly the tetrazines of the invention are at least 1 order of magnitude more reactive than the known and high-releasing 3,6-bismethyl-tetrazine (2.17), while giving similar release yields (see Example 7).” left out

[6] = Activator stability in PBS at rt (UV decay at 520 nm); type: physicochemical; details: mean ± SD (n = 3)
Description: The assessment of activator stability was performed in PBS at rt. Solutions in DMSO (2.5 mM, 20 μL) were diluted with PBS (3.00 mL), filtered, and incubated at rt. The decrease of the absorption band at 520 nm was monitored using UV spectroscopy.

[7] = test system: LS174T xenografts; experiment: MMAE measurement in tumors; type: in vivo, mice
Description: Female nude Balb/C mice were subcutaneously inoculated ca. 1×10^6 LS174T cells in the hind limb. Biodistribution studies started when the tumors reached 0.1-0.2 cm^3 size. Experiments were carried out to evaluate the reactivity between the TCO Trigger on tumor-bound ADC and activators 2.7, 2.8, 2.14 and 2.16 in LS174T xenografts, as previously performed for other activators [Rossin et al Nature Communications 2018, 9, 1484]. The activators were administered at a 20- to 100-lower dose than that used in previous activation and therapy studies (ca. 0.335 mmol/kg). […] Groups of tumor bearing mice (n=4) were injected with ^125I-labeled ADC (2 mg/kg) followed 48 h later by the activators (dose 1×: ca. 3.3 μmol/kg; dose 5×: ca. 16.7 μmol/kg) and, after 1 h, by [^111In]In-2.20 (ca. 0.33 μmol/kg). One group was injected with the same amount of ^125I-labeled ADC followed only by ^111In-2.20 49 h later. One group was injected only with ^111In-2.20 (non-specific probe binding). All mice were euthanized 23 h post-probe injection and the ^125I and ^111In uptakes in tumors were measured by γ-counting.
The concentration of MMAE released in tumors was measured as previously reported [Rossin et al Nature Communications 2018, 9, 1484]. […] For this reason, activator 2.16 was selected for a therapy study in combination with the click-cleavable ADC. At the doses of tc-ADC (4 mg/kg) and 2.16 (dose 10×; 33.5 μmol/kg) used for therapy study, a high level of 339±45 nM free MMAE was detected in tumors.

[8] = test system: LS174T xenografts; experiment: Therapy study in mice with LS174T xenografts; type: in vivo
Description: Groups of 10 female nude Balb/C mice were s.c. inoculated ca. 1×10^6 LS174T cells in the hindlimb and the therapy study started when the tumors became palpable (5-11 days after tumor cell inoculation). One group was administered four cycles (one cycle every 4 days) of tc-ADC (ca. 4 mg/kg) followed by activator 2.16 (ca. 33.5 μmol/kg) 48 later. Control groups received four cycles of ADC alone, activator alone, or vehicle. Tumor sizes and body weights were measured 2-3 times per week. […] On the contrary, all control mice were euthanized within 3 weeks from the beginning of the treatment due to large tumor size (>1.5 gr) or poor health conditions with a 15.5-17.5 days median survival. Overall, the repeated treatments were tolerated well by the mice, with no overt signs of hematological toxicity that could be attributed to the use of ADC and activator, either in combination or alone.

[9] = 2 min after reaction with activator

With `Nc1cccnc1-c1nnc(-c2ncccc2N)nn1` [2.1, 2,2′-(1,2,4,5-Tetrazine-3,6-diyl)bis(pyridin-3-amine)] the “MMAE release from ADC AVP0458-TCO-MMAE, Release (%)” value (from here on “MMAE release … (%)”) ([1]; 24 h, mean ± SD (n = 3)) was 32.1 ± 0.7^b %.
With `CC(=O)Nc1cccnc1-c1nnc(-c2ncccc2NC(C)=O)nn1` [2.2, N,N′-(2,2′-(1,2,4,5-Tetrazine-3,6-diyl)bis(pyridine-3,2-diyl))diacetamide] the Construct release % ([2]; TCO 3.11, doxorubicin, 18 h, 37° C.) was 18 h: 74%, the Construct release % ([2]; TCO 3.11, doxorubicin, 42 h, 37° C.) was 42 h: 81% and the Construct release % ([2]; TCO 3.11, released construct doxorubicin, 5 min) was 5 min: 4%. For the same molecule, the Construct release % ([2]; TCO 3.23, released construct dimethylamine, 5 min) was 5 min: 100%, the Construct release % ([2]; TCO 3.32, released construct dimethylamine, 5 min) was 5 min: 98% and the “MMAE release … (%)” value ([1]; 24 h, mean ± SD (n = 3)) was 79.3 ± 0.4%.
In the case of `Nc1cnccc1-c1nnc(-c2ccncc2N)nn1` [2.3, 4,4′-(1,2,4,5-Tetrazine-3,6-diyl)bis(pyridin-3-amine)], the “MMAE release … (%)” value ([1]; 24 h, mean ± SD (n = 3)) is reported as 88.5 ± 0.1%.
In the case of `CC(=O)Nc1cnccc1-c1nnc(-c2ccncc2NC(C)=O)nn1` [2.4, N,N′-(4,4′-(1,2,4,5-Tetrazine-3,6-diyl)bis(pyridine-4,3-diyl))diacetamide], the “MMAE release … (%)” value ([1]; 24 h, mean ± SD (n = 3)) is reported as 96.0 ± 0.3%.
With `Oc1cnccc1-c1nnc(-c2ccncc2O)nn1` [2.8, 4,4′-(1,2,4,5-Tetrazine-3,6-diyl)bis(pyridin-3-ol)] the “Calculated k2 values for the reaction between tetrazine activators and TCO 3.2 in PBS” value [3] was 270 ± 11 M⁻¹ s⁻¹, the viability at 72 h, 0.01 μM [4] was 96.9 ± 3.6% and the viability at 72 h, 0.1 μM [4] was 98.4 ± 3.6%. The viability at 72 h, 1 μM [4] was 93.9 ± 5.2%, the “Calculated k2 values for the reaction between tetrazine activators and TCO 3.2 in MeCN” value [5] was 10 M⁻¹ s⁻¹ and the half-life at 16.6 µM [6] was 6.5 ± 0.6 h. The “MMAE release … (%)” value [1, 9] was 48.7%, the “MMAE release … (%)” value ([1]; 10 min) was 83.4% and the “MMAE release … (%)” value ([1]; 1 h) was 92.7%. For the same molecule, the “MMAE release … (%)” value ([1]; 5 h) was 93.6%, the “MMAE release … (%)” value ([1]; 24 h, mean ± SD (n = 3)) was 94.3 ± 1.3% and the “MMAE release level, in words” value [1] was “as high as that obtained with the less reactive 2.17”. For the same molecule, the “MMAE release speed, in words” value ([1]; compared with 2.17) was “faster”.
In the case of `O=C(CCCC(=O)Nc1cnccc1-c1nnc(-c2ccncc2NC(=O)CCCC(=O)NCCOCCOCCOCCOCCOCCOCCOCCOCCOCCO)nn1)NCCOCCOCCOCCOCCOCCOCCOCCOCCOCCO` [2.16, N^1,N^1′-(4,4′-(1,2,4,5-Tetrazine-3,6-diyl)bis(pyridine-4,3-diyl))bis(N^5-(29-hydroxy-3,6,9,12,15,18,21,24,27-nonaoxanonacosyl)glutaramide)], the “Calculated k2 values for the reaction between tetrazine activators and TCO 3.2 in PBS” value [3] is reported as 519 ± 12 M⁻¹ s⁻¹, the viability at 72 h, 0.01 μM [4] is reported as 105 ± 7.4% and the viability at 72 h, 0.1 μM [4] is reported as 96.9 ± 3%. The viability at 72 h, 1 μM [4] was 93.9 ± 2.8%, the “MMAE release in tumors, comparison of activators” value ([7]; 5× dose of activator) was “significantly higher release” and the “free MMAE in tumors, comparison of activators” value ([7]; 24 h after administration of activator at dose 1×) was “No difference”. For the same molecule, the half-life at 16.6 µM [6] was 4.2 ± 0.1 h, the “MMAE release … (%)” value [1, 9] was 1.9% and the “MMAE release … (%)” value ([1]; 10 min) was 19.4%. For the same molecule, the “MMAE release … (%)” value ([1]; 1 h) was 70.7%, the “MMAE release … (%)” value ([1]; 5 h) was 82.8% and the “MMAE release … (%)” value ([1]; 24 h, mean ± SD (n = 3)) was 95.6 ± 0.6%. For the same molecule, the “MMAE release level, in words” value [1] was “as high as that obtained with the less reactive 2.17”, the “time for which growth of LS174T tumors was completely inhibited” value ([8]; four cycles of tc-ADC (ca. 4 mg/kg) followed by activator 2.16 (ca. 33.5 μmol/kg) 48 later) was “over 3 weeks” and the median overall survival ([8]; four cycles, one cycle every 4 days, treated group: tc-ADC ca. 4 mg/kg + 2.16 ca. 33.5 μmol/kg, controls: ADC alone, activator alone, or vehicle) was 42 days.
In the case of `Cc1nnc(C)nn1` [2.17, 3,6-bismethyl-tetrazine, reference compound], the viability at 72 h, 0.01 μM [4] is reported as 90.2 ± 4.5%, the viability at 72 h, 0.1 μM [4] is reported as 87.9 ± 6.4% and the viability at 72 h, 1 μM [4] is reported as 85.7 ± 7.4%.
`c1ccc(-c2nnc(-c3ccccn3)nn2)nc1` [2.18, 3,6-bis(2-pyridinyl)-tetrazine, reference compound] gave a viability at 72 h, 0.01 μM [4] of 101 ± 3%, a viability at 72 h, 0.1 μM [4] of 101 ± 2.8% and a viability at 72 h, 1 μM [4] of 102 ± 3.6%.
Molecule `c1cc(-c2nnc(-c3ccncc3)nn2)ccn1` [2.19, 3,6-bis(4-pyridinyl)-tetrazine, reference compound] has a viability at 72 h, 0.01 μM [4] of 87 ± 2.6%, a viability at 72 h, 0.1 μM [4] of 88.7 ± 2.5% and a viability at 72 h, 1 μM [4] of 91.3 ± 3%.
